From patent US20050004024A1, “Methods of treating Pin1 associated disorders by covalent modification of active site residues” (PINTEX PHARMACEUTICALS, INC., priority 2003, published 2005)

Target: Pin1 (Homo sapiens, UniProt Q13526)
Test: Time dependent inactivation of Pin1 (pre-incubation, then protease coupled Pin1 assay)
Type: biochemical
Settings: 7.4 uM Pin1 incubated with 200 uM compound, 1% DMF, 35 mM hepes pH 7.8; aliquots diluted to 1 nM Pin1; FIG. 2
Procedure: Pin1 was incubated with Fred-A to determine the effect on peptidyl prolyl isomerase activity.
(§1) A solution containing 7.4 uM Pin1, 100 uM juglone 1% DMF, in 35 mM hepes pH 7.8 was incubated. At various time points, aliquots were removed and diluted into assay buffer containing 1 nM Pin1, 13.5 nM juglone, 0.1 mg/ml BSA, 0.2 mM DTT, and 35 mM Hepes pH 7.8. Pin1 activity was measured by using a protease coupled Pin1 assay.
Aliquots of the incubation mixtures were diluted 7,200 fold into assay buffer (0.1 mg/mL BSA, 0.2 mM DTT and 35 mM Hepes pH 7.8) to a final Pin1 concentration of 1 nM. 20 uL of a 0.4 mg/mL trypsin solution in 35 mM Hepes pH 7.8 was added to 1.2 mL Pin1 solution. The enzymatic reaction was initiated by the addition of 3 uL the substrate solution (15/mg/mL of Ac-Ala-Ala-(PO3)Ser-Pro-Arg-pNA dissolved in a solution of 0.5 M LiCl in trifluroethanol). The reaction progress was monitored at 390 nm for 8 minutes at 4° C.
as §1, with “200” for “100”, “27” for “13.5”, “as described above for juglone.” for “by using a protease coupled Pin1 assay.”

Chain of Pin1 (Q13526 whole entry): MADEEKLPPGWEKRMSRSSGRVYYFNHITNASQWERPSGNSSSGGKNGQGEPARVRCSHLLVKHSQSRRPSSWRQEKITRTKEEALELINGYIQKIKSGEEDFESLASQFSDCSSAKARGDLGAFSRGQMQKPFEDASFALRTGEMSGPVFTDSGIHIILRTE

Fredericamycin A [Fred-A]
effect on peptidyl prolyl isomerase activity / covalent modification of Pin1: modified in a manner consistent with covalent modification of the active site
